Experimental data taken from PMC11077089, “Molecular basis of A. thaliana KEOPS complex in biosynthesizing tRNA t^6A” (Nucleic Acids Research, 2024).

Columns and labels:
Assay type in all cases: biochemical
[1] = target: T1, KB (KAE1–BUD32) (Arabidopsis thaliana, UniProt Q94K14); test: NADH-coupled ATPase assay; settings: 2 mM ATP, 5 μM protein, 5 mM MgCl2, pH 7.5, 25°C
T1 construct: gene T1N24.12; pET21a-AtKAE1-BUD32-6His, E. coli; monomer (1:1) by SEC; with tRNA N6-adenosine threonylcarbamoyltransferase KAE1
T1 sequence (Q94K14 1-226): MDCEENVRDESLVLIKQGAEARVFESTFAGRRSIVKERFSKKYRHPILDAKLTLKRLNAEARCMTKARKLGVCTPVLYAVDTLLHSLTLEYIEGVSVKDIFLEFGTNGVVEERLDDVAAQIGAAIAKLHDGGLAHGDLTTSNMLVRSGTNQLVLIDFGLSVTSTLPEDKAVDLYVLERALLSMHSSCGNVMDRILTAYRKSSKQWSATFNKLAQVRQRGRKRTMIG
T1 sequence (O49653 1-353 partner): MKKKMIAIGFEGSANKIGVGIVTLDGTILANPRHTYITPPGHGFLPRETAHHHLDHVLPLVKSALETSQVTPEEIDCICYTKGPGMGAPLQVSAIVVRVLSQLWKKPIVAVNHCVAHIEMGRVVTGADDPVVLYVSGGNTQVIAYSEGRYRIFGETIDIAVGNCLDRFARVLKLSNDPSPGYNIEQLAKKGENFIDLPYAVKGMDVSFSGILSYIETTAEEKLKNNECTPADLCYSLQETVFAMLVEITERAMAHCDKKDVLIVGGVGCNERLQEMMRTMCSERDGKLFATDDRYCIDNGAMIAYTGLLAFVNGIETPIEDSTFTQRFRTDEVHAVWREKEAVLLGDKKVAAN

[2] = target: T2, KBP (KAE1–BUD32–PCC1) (Arabidopsis thaliana, UniProt Q94K14); test: NADH-coupled ATPase assay; settings: 2 mM ATP, 5 μM protein, 5 mM MgCl2, pH 7.5, 25°C
T2 construct: gene T1N24.12; subcomplex without CGI121, recombinant from E. coli; dimer by SEC; with tRNA N6-adenosine threonylcarbamoyltransferase KAE1; EKC/KEOPS complex subunit PCC1
T2 sequence (Q94K14 1-226): T1 sequence (Q94K14 1-226)
T2 sequence (O49653 1-353 partner): T1 sequence (O49653 1-353 partner)
T2 sequence (Q8GWD7 1-96 partner): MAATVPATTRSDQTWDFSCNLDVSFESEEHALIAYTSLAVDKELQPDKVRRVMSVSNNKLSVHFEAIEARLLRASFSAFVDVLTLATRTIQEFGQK

[3] = target: T3, AtYRDC (A. thaliana YRDC) (Arabidopsis thaliana, UniProt F4K0E6); test: LC-MS of TC-AMP formation; settings: 2 μM YRDC, 4 mM L-threonine, 2 mM ATP, 20 mM NaHCO3, 5 mM MgCl2, pH 7.5, 25°C
T3 construct: gene MUP24.1; pET21a-AtYRDC-6His, E. coli, synthetic DNA
T3 sequence (F4K0E6 1-288): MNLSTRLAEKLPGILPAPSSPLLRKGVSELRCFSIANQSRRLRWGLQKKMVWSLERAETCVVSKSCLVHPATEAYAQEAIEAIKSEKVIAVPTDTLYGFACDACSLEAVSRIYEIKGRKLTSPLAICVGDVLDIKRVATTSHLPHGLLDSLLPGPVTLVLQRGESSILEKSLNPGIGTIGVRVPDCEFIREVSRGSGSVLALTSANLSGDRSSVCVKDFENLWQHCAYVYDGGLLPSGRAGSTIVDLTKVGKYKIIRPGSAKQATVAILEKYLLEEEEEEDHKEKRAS

Structure (SMILES) | NADH-coupled ATPase assay [1] | NADH-coupled ATPase assay [2] | LC-MS of TC-AMP formation [3]
Nc1ncnc2c1ncn2[C@@H]1O[C@H](COP(=O)(O)OP(=O)(O)OP(=O)(O)O)[C@@H](O)[C@H]1O [ATP] | efficient conversion of ATP to ADP in the presence of KAE1–BUD32, PCC1–KAE1–BUD32 or KEOPS | efficient conversion of ATP to ADP in the presence of KAE1–BUD32, PCC1–KAE1–BUD32 or KEOPS | –
C[C@@H](O)[C@H](N)C(=O)O [L-threonine] | – | – | YRDC is active in catalyzing the formation of threonylcarbamoyl-AMP (TC-AMP)
